Measured values reported in the supplement of paper PMC10307832.

Key:
Test in all cases: relative viability (nuclei count vs DMSO), 5 days (fraction); higher = more cells survive
[1] = compound: CC1=NC=CC(=C1)C2=CC=C(C=C2)CC(=O)NC3=CC=C(C=C3)C4=CN=CC=C4 [Wnt-C59]
In short: (§1)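 Five library-drug doses spaced by √10 were pinned onto vehicle-anchored 1536-well plates of lung cancer cell lines that had been kept overnight at 37 °C. Cells went 5 days without medium change, then were fixed, permeabilised and Hoechst-stained together, imaged at 4× and counted by MetaXpress. Viability is the ratio of treated-well to vehicle-well nuclei, taken as a median over plates. Plates required control CV below 25% and at least one doubling.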

[2] = compound: CS(=O)(=O)CCNCc1ccc(-c2ccc3ncnc(Nc4ccc(OCc5cccc(F)c5)c(Cl)c4)c3c2)o1 [Lapatinib]
In short: as §1

[3] = compound: CS(=O)(=O)CCNCc1ccc(-c2ccc3ncnc(Nc4ccc(OCc5cccc(F)c5)c(Cl)c4)c3c2)o1 [Lapatinib] + CC(=O)Nc1cccc(-n2c(=O)n(C3CC3)c(=O)c3c(Nc4ccc(I)cc4F)n(C)c(=O)c(C)c32)c1 [Trametinib] (partner 0.02 µM)
In short: (§2)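 After 5 days of treatment, lung cancer cells in 1536-well plates were fixed and stained in a single step (final 0.05% Triton X-100, 1% formaldehyde, 1 ug/ml Hoechst) and their nuclei counted on 4× images. Treatment had been applied by pin tool the day after seeding as one drug alone or as a fixed anchor-drug dose with five library-drug doses (not always all listed) in √10 steps. Relative viability is the nuclei count of treated wells divided by that of vehicle wells, and values are medians of duplicate plates.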

[4] = compound: CS(=O)(=O)CCNCc1ccc(-c2ccc3ncnc(Nc4ccc(OCc5cccc(F)c5)c(Cl)c4)c3c2)o1 [Lapatinib] + Nc1ncn([C@H]2C[C@H](O)[C@@H](CO)O2)c(=O)n1 [Decitabine] (partner 2 µM)
In short: as §2

Q: Which relative viability ([1]; 0.001 µM) does the source give for UMC-11 here?
A: Its relative viability is 0.909.

Q: And the relative viability ([1]; 0.01 µM)?
A: The relative viability was 1.04.

Q: And the relative viability ([1]; 0.03162 µM)?
A: The relative viability was 1.08.

Q: What about the relative viability ([1]; 0.1 µM) of the same cell line?
A: Its relative viability is 1.03.

Q: And the relative viability ([2]; 0.02 µM)?
A: The relative viability was 0.906.

Q: And the relative viability ([2]; 0.06325 µM)?
A: Its relative viability is 0.935.

Q: And the relative viability ([2]; 0.2 µM)?
A: Its relative viability is 1.02.

Q: And the relative viability ([2]; 0.6325 µM)?
A: Its relative viability is 0.998.

Q: What about the relative viability ([2]; 2 µM) of the same cell line?
A: Its relative viability is 0.942.

Q: And the relative viability ([2]; 2 µM, anchor plate)?
A: Its relative viability is 1.02.

Q: What about the relative viability ([3]; first compound 0.02 µM) of the same cell line?
A: The relative viability was 0.293.

Q: And the relative viability ([3]; first compound 0.06325 µM)?
A: The relative viability was 0.617.

Q: What about the relative viability ([3]; first compound 0.2 µM) of the same cell line?
A: The relative viability was 0.69.

Q: What about the relative viability ([3]; first compound 0.6325 µM) of the same cell line?
A: The relative viability was 0.76.

Q: And the relative viability ([3]; first compound 2 µM)?
A: The relative viability was 0.676.

Q: What about the relative viability ([4]; first compound 0.02 µM) of the same cell line?
A: The relative viability was 0.493.

Q: What about the relative viability ([4]; first compound 0.06325 µM) of the same cell line?
A: The relative viability was 0.541.

Q: And the relative viability ([4]; first compound 0.2 µM)?
A: The relative viability was 0.627.

Q: What about the relative viability ([4]; first compound 0.6325 µM) of the same cell line?
A: The relative viability was 0.518.

Q: And the relative viability ([4]; first compound 2 µM)?
A: Its relative viability is 0.604.
